This note sets out measurements from patent US12318403B2, “2′3′-cyclic dinucleotides and prodrugs thereof” (INSTITUTE OF ORGANIC CHEMISTRY AND BIOCHEMISTRY ASCR, V.V.I., priority 2019, dated 2025).

Test [1] relates to peripheral blood mononuclear cell (PBMC). Nature of the test: Peripheral blood mononuclear cell assay. To be noted: average of one to four donors.
Protocol: Selected compounds were tested in an in vitro peripheral blood mononuclear cell (PBMC) assay. […] Serially diluted tested compounds were added to wells in 50 μl of cultivation medium and cells were incubated with the compounds for 1h at 37° C. with 5% CO2. Plates with cells were then spun 500 g for 5 minutes and the medium was removed. Cells were washed twice with the cell culture medium by the use of centrifugation and gently resuspended in 100 μl medium without compounds. After 15 hour incubation at 37° C. with 5% CO2, the cell culture medium was collected and the levels of interferon-alpha (INF-α), interferon-gamma (INF-γ) and tumor necrosis factor-alpha (TNF-α) were determined with ProcartaPlex Assays (ThermoFisher, Waltham, USA) and MAGPIX System (Merck KGaA, Darmstadt, Germany). […] Values reported are an average of runs from one to four donors.
Test [2] addresses T1, human wild type STING (WT STING) (Homo sapiens, UniProt Q86WV6, H232R). Nature of the test: 293T WT STING standard reporter assay. It is filed as cell-based. To be noted: 293T wtSTING-FL cells; standard reporter assay without digitonin; 7 hours; ISRE firefly luciferase; read-out: 293T WT STING EC50. (In general: A reporter such as luciferase makes a cellular process visible.)

For test [3], the target named is T2, AQ human STING (G230A-R293Q) (Homo sapiens, UniProt Q86WV6, G230A/H232R/R293Q).
T2 construct: truncated human WT STING or AQ STING (amino acid residues 140-343); 8xHis (N, cleaved yes); SUMO (N, cleaved yes); made in house; host or cells: E. coli Rosetta-gami B (DE3)
T2 sequence (Q86WV6 140-343 G230A/H232R/R293Q): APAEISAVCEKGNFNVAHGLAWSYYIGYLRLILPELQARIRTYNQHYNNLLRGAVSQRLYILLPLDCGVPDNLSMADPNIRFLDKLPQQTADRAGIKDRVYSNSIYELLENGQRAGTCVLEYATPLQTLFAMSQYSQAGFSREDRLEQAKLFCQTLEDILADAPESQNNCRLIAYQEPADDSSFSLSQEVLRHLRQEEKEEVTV
Nature of the test: Differential Scanning Fluorimetry with AQ STING. The test is classed as binding. To be noted: thermal shift vs STING apoprotein; 150 μM CDN; truncated AQ STING (residues 140-343). A general note: In DSF a fluorescence change marks the thermal transition of the protein.

The target in a further test is T3, human WT STING (Homo sapiens, UniProt Q86WV6, H232R).
T3 construct: truncated human WT STING or AQ STING (amino acid residues 140-343); 8xHis (N, cleaved yes); SUMO (N, cleaved yes); made in house; host or cells: E. coli Rosetta-gami B (DE3)
T3 sequence (Q86WV6 140-343 H232R): as the sequence (Q86WV6 140-343 G230A/H232R/R293Q) above, with A91G, Q154R counted along it
Nature of the test: Differential Scanning Fluorimetry with WT STING. It is filed as binding. To be noted: thermal shift vs STING apoprotein; 150 μM CDN; truncated WT STING (residues 140-343).

Test [4] addresses T1, human wild type STING (WT STING). Nature of the test: Digitonin assay using 293T wtSTING-FL reporter cells. It is filed as cell-based. To be noted: 293T wtSTING-FL cells; compounds in Digitonin buffer 30 minutes, then 5 hours in medium; ISRE firefly luciferase.
[5] abbreviates: PBMC, read-out: PBMC EC50 IFN-α, compounds 1h, washed, 15 hour incubation, interferon-alpha level in medium.
Setting [6] is: PBMC, read-out: PBMC EC50 TNF-α, compounds 1h, washed, 15 hour incubation, tumor necrosis factor-alpha level in medium.
Setting [7] is: read-out: PBMC EC50 IFN-γ, compounds 1h, washed, 15 hour incubation, interferon-gamma level in medium.
The mark [8] stands for this setting: read-out: PBMC EC50 IFN-α, compounds 1h, washed, 15 hour incubation, interferon-alpha level in medium.
Setting [9] is: read-out: PBMC EC50 TNF-α, compounds 1h, washed, 15 hour incubation, tumor necrosis factor-alpha level in medium.
[10] abbreviates: PBMC, read-out: PBMC EC50 IFN-γ, compounds 1h, washed, 15 hour incubation, interferon-gamma level in medium.

pEC50: −log10 of the molar value. Where two headings read alike, the source gives them in different places.

T1 sequence (Q86WV6 whole entry H232R): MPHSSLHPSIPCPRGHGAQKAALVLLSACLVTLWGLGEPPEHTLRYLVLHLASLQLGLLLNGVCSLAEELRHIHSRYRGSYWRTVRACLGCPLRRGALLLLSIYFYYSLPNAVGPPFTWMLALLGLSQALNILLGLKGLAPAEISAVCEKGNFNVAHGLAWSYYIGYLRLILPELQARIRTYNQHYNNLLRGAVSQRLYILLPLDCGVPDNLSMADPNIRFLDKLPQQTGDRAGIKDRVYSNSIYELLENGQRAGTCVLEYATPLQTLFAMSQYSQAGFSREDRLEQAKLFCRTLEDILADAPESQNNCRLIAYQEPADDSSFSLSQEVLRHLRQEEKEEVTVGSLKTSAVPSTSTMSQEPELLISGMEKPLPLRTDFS

For `Nc1nc2c(ncn2[C@@H]2O[C@@H]3COP(=O)(O)CO[C@H]4[C@@H](F)[C@H](n5cnc6c(N)ncnc65)O[C@@H]4COP(=O)(S)O[C@@H]2[C@@H]3F)c(=O)[nH]1` (single isomer, unassigned) [Compound 11a], the pEC50 (in general, the EC50 on a negative log10 scale, so that one unit is a factor of ten) was 3.54 in test [1] (setting [5]); 3.74 in test [1] (setting [6]); 3.82 in test [1] (setting [7]); 5.60 in test [2]; 7.52 in test [4]. The “DSF ΔTm AQ STING” value in test [3] was 23.1 °C. The “DSF ΔTm WT STING” value on human WT STING is 17.3 °C.
For the compound `Nc1nc2c(ncn2[C@@H]2O[C@@H]3COP(=O)(O)CO[C@H]4[C@@H](F)[C@H](n5cnc6c(N)ncnc65)O[C@@H]4COP(=O)(S)O[C@@H]2[C@@H]3F)c(=O)[nH]1` (single isomer, unassigned) [Compound 11b], the pEC50 in test [1] (setting [8]) was 3.64; in test [1] (setting [7]), 4.25; in test [1] (setting [9]), 3.77; in test [2] it was 5.72; in test [4], 8.00. For the same compound, the “DSF ΔTm AQ STING” value in test [3] amounted to 29.2 °C. Further, the “DSF ΔTm WT STING” value on human WT STING turned out to be 22.4 °C.
With `Nc1ncnc2c1ncn2[C@@H]1O[C@@H]2COP(=O)(S)O[C@@H]3[C@H](F)[C@@H](COP(=O)(O)CO[C@H]2[C@H]1F)O[C@H]3n1cnc2c(=O)[nH]cnc21` (single isomer, unassigned) [Compound 13b], the pEC50 in test [1] (setting [5]) is 3.82; in test [1] (setting [10]) it was 4.15; in test [1] (setting [6]), 4.19; in test [2], 5.96; in test [4], 8.00. In addition, the “DSF ΔTm AQ STING” value in test [3] turned out to be 26.0 °C. Besides, on human WT STING, the “DSF ΔTm WT STING” value was found to be 20.9 °C.
Take `Nc1nc2c(ncn2[C@@H]2O[C@@H]3COP(=O)(S)CO[C@H]4[C@@H](F)[C@H](n5cnc6c(N)ncnc65)O[C@@H]4COP(=O)(S)O[C@@H]2[C@@H]3F)c(=O)[nH]1` (single isomer, unassigned) [Compound 17c]: the pEC50 in test [1] (setting [8]) was 3.97; in test [1] (setting [7]), 4.38; in test [1] (setting [9]) it was 4.08; in test [2], 6.85; in test [4], 8.15. The “DSF ΔTm AQ STING” value in test [3] came out at 25.4 °C. For the same compound, the “DSF ΔTm WT STING” value at human WT STING was found to be 18.6 °C.
For `Nc1nc2c(ncn2[C@@H]2O[C@@H]3COP(=O)(S)CO[C@H]4[C@@H](F)[C@H](n5cnc6c(N)ncnc65)O[C@@H]4COP(=O)(S)O[C@@H]2[C@@H]3F)c(=O)[nH]1` (single isomer, unassigned) [Compound 17d], the pEC50 is 4.16 in test [1] (setting [5]); 4.64 in test [1] (setting [10]); 4.17 in test [1] (setting [6]); 6.40 in test [2]; 7.92 in test [4]. For the same compound, the “DSF ΔTm AQ STING” value in test [3] was determined as 27.6 °C. Moreover, the “DSF ΔTm WT STING” value on human WT STING was 19.2 °C.
Take `Nc1ncnc2c1ncn2[C@@H]1O[C@@H]2COP(=O)(O)O[C@H]3[C@@H](O)[C@H](n4cnc5c(N)ncnc54)O[C@@H]3COP(=O)(O)O[C@H]2[C@H]1O` [3′3′-c-di-AMP, reference compound]: the pEC50 in test [2] is 3.69; in test [4] it was 6.52. The “DSF ΔTm AQ STING” value in test [3] was determined as 9.0 °C. Moreover, the “DSF ΔTm WT STING” value at human WT STING was found to be 2.5 °C.
